The results in this text go back to ChEMBL document CHEMBL5665443, “Enzyme Inhibitor Single Concentration assay results for EUbOPEN Chemogenomics Library” (2024).

Common to all, as to conditions: Hit No
Assay [1] concerns the target Endonuclease 8-like 1 (Homo sapiens) (UniProt Q96FI4).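 Note: fluorescence at 594 nm from quenched duplex DNA oligonucleotides released by NEIL1 cleavage and strand separation, reported as reduction of this enzyme activity.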
Description: Inhibition of NEIL1 by quantifying inhibition of NEIL1-mediated cleavage and dissociation of quenched duplex DNA oligonucleotides, measured as fluorescence at 594 nm.
Assay [2] concerns the target Uracil-DNA glycosylase (Homo sapiens) (UniProt P13051).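 Note: UNG excision on a quenched double-stranded DNA oligo probe, with APE1 added for strand incision and turnover, read as fluorescence at 594 nm as strands separate.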
Description: Inhibition of UNG by quantifying inhibition of UNG-mediated cleavage and dissociation of quenched duplex DNA oligonucleotides, measured as fluorescence at 594 nm. To generate a functional strand incision and increase turn-over this assay is coupled to APE1.
Assay [3] has as its target T1, Endonuclease III-like protein 1 (Homo sapiens) (UniProt P78549).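 Note: enzyme assay tracking NTHL1 cutting and release of a quenched double-stranded DNA oligo substrate, read as fluorescence at 594 nm.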
T1 sequence (whole entry): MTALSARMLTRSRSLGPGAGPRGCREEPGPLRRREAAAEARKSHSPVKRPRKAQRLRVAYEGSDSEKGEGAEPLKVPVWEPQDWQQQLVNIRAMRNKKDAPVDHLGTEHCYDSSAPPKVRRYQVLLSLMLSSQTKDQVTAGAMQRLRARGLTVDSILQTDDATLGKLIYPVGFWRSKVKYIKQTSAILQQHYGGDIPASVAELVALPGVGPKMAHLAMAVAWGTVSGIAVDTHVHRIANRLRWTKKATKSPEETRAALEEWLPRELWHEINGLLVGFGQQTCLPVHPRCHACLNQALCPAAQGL
Description: Inhibition of NTHL1 by quantifying inhibition of NTHL1-mediated cleavage and dissociation of quenched duplex DNA oligonucleotides, measured as fluorescence at 594 nm.

The target in assay [4] is T2, Adenine DNA glycosylase (Homo sapiens) (UniProt Q9UIF7).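 Note: human MUTYH activity read as 594 nm fluorescence from cleavage and release of a quenched DNA duplex, coupled with APE1 for strand incision, lower signal meaning inhibition.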
T2 sequence (whole entry): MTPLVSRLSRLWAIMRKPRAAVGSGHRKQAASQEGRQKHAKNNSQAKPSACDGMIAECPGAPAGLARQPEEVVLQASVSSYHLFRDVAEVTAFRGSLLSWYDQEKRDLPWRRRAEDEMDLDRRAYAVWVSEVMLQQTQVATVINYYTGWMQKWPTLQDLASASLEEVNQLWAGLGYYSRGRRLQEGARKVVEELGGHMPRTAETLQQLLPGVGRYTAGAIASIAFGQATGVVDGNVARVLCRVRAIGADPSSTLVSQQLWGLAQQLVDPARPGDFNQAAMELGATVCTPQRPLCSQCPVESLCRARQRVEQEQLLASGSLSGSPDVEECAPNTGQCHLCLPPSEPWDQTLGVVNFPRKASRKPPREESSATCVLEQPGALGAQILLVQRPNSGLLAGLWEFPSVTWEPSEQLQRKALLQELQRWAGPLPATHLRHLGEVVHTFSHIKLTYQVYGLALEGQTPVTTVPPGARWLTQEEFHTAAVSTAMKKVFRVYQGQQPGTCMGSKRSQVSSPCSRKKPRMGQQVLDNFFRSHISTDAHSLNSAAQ
Description: Inhibition of MUTYH by quantifying inhibition of MUTYH-mediated cleavage and dissociation of quenched duplex DNA oligonucleotides, measured as fluorescence at 594 nm. To generate a functional strand incision and increase turn-over this assay is coupled to APE1.

For assay [5], the target named is N-glycosylase/DNA lyase (Homo sapiens) (UniProt O15527).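 Note: OGG1 cleavage of a quenched duplex DNA oligonucleotide, coupled to APE1 for strand incision, read as fluorescence at 594 nm.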
Sequence of N-glycosylase/DNA lyase (Homo sapiens) (O15527 whole entry): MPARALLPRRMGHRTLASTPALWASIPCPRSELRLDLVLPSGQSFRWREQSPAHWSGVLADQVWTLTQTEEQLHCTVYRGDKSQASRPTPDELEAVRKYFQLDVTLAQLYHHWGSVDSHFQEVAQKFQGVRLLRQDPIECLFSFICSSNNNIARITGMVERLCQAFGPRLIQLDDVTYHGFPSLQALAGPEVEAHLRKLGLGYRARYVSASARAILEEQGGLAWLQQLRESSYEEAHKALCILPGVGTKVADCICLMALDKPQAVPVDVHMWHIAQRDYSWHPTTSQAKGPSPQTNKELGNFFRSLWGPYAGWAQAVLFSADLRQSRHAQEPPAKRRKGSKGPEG
Description: Inhibition of OGG1 by quantifying inhibition of OGG1-mediated cleavage and dissociation of quenched duplex DNA oligonucleotides, measured as fluorescence at 594 nm. To generate a functional strand incision and increase turn-over this assay is coupled to APE1.
The target in assay [6] is T3, Endonuclease 8-like 2 (Homo sapiens) (UniProt Q969S2).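 Note: fluorescence at 594 nm reports NEIL2 cutting and release of a quenched double-stranded DNA oligo substrate, reduced signal read as inhibition.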
T3 sequence (whole entry): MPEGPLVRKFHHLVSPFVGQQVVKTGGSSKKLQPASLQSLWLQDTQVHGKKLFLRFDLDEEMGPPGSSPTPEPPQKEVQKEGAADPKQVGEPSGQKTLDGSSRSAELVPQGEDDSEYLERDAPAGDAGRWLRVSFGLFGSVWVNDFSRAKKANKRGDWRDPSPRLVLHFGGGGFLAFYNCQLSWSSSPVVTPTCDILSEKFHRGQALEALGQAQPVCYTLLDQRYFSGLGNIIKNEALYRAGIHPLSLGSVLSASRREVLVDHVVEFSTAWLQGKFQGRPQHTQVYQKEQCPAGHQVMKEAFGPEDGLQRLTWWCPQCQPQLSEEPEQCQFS
Description: Inhibition of NEIL2 by quantifying inhibition of NEIL2-mediated cleavage and dissociation of quenched duplex DNA oligonucleotides, measured as fluorescence at 594 nm.

In assay [7] the target is G/T mismatch-specific thymine DNA glycosylase (Homo sapiens) (UniProt Q13569).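 Note: human TDG cleavage of quenched duplex DNA oligonucleotides coupled to APE1, strand release read as fluorescence at 594 nm, inhibition of TDG activity.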
Sequence of G/T mismatch-specific thymine DNA glycosylase (Homo sapiens) (Q13569 whole entry): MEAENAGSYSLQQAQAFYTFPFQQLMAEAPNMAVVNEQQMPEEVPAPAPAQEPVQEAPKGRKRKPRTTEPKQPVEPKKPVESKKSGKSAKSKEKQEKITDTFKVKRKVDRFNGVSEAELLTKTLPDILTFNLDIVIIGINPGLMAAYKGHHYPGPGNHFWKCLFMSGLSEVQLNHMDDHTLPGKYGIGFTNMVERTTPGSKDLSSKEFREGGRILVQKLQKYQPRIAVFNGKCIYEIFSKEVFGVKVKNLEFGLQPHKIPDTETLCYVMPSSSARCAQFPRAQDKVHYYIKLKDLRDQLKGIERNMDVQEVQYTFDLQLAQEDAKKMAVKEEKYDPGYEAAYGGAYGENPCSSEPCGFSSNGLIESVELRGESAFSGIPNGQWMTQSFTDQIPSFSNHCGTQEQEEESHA
Description: Inhibition of TDG by quantifying inhibition of TDG-mediated cleavage and dissociation of quenched duplex DNA oligonucleotides, measured as fluorescence at 594 nm. To generate a functional strand incision and increase turn-over this assay is coupled to APE1.
For assay [8], the target named is T4, Single-strand selective monofunctional uracil DNA glycosylase (Homo sapiens) (UniProt Q53HV7).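 Note: enzymatic SMUG1 assay coupled with APE1, reading fluorescence at 594 nm released when a quenched double-stranded DNA oligonucleotide substrate is cleaved and separated.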
T4 sequence (whole entry): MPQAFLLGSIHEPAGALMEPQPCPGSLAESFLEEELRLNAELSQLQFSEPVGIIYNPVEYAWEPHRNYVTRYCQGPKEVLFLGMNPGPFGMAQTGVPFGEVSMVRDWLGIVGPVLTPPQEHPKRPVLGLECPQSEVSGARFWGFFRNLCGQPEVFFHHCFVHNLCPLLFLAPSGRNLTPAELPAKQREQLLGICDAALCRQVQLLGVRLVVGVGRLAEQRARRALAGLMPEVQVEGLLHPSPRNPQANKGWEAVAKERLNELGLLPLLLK
Description: Inhibition of SMUG1 by quantifying inhibition of SMUG1-mediated cleavage and dissociation of quenched duplex DNA oligonucleotides, measured as fluorescence at 594 nm. To generate a functional strand incision and increase turn-over this assay is coupled to APE1.

For assay [9], the target named is Methyl-CpG-binding domain protein 4 (Homo sapiens) (UniProt O95243).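 Note: MBD4 activity read as fluorescence at 594 nm from cleavage and release of a quenched duplex DNA oligonucleotide, with APE1 coupled to incise the strand and raise turnover.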
Sequence of Methyl-CpG-binding domain protein 4 (Homo sapiens) (O95243 whole entry, the tested form may be a part): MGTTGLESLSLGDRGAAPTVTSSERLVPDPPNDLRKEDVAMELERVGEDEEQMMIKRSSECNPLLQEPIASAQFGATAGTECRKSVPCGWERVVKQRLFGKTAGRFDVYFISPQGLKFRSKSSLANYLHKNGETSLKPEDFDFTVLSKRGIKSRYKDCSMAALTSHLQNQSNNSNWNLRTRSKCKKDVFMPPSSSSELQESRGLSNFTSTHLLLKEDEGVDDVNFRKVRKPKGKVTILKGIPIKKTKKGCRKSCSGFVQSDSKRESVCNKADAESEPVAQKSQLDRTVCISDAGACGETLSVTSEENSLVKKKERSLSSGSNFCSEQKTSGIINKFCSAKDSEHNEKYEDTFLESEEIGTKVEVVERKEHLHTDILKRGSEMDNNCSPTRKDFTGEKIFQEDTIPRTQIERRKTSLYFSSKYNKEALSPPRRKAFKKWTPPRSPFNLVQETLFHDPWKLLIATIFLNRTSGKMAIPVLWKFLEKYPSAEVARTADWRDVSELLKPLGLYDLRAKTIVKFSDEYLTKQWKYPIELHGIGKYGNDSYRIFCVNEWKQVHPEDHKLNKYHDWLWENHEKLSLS
Description: Inhibition of MBD4 by quantifying inhibition of MBD4-mediated cleavage and dissociation of quenched duplex DNA oligonucleotides, measured as fluorescence at 594 nm. To generate a functional strand incision and increase turn-over this assay is coupled to APE1.

Sequence of Uracil-DNA glycosylase (Homo sapiens) (P13051 whole entry): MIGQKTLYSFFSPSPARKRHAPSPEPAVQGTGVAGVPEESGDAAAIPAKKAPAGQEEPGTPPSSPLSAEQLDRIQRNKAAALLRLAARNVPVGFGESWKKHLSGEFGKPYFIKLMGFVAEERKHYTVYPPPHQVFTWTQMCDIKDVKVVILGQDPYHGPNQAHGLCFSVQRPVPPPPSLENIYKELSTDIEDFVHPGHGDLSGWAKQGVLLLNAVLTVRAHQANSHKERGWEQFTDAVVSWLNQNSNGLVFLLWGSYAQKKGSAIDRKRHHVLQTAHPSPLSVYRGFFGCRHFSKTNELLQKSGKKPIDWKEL
Sequence of Endonuclease 8-like 1 (Homo sapiens) (Q96FI4 whole entry): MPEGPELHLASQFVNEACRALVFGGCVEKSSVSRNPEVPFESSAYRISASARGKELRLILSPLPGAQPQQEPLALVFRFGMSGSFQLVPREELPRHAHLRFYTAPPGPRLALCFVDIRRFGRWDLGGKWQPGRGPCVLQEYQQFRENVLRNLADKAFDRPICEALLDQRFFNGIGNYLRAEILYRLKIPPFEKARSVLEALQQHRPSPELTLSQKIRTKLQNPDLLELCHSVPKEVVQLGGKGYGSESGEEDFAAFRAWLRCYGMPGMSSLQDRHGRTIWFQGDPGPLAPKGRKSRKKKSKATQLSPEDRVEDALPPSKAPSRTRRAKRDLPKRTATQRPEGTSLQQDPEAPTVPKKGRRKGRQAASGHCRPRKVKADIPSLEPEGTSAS

As to `COc1ccccc1CN[C@H]1C2CCN(CC2)[C@H]1C(c1ccccc1)c1ccccc1`, the inhibition in assay [1] (Compound Concentration 10.0 uM) was -4.06%; in assay [2] (Compound Concentration 10.0 uM), -4.4%; in [3] (Compound Concentration 10.0 uM) it was -5.41%; in assay [4] (Compound Concentration 10.0 uM) it was 11.2%; in assay [5] (Compound Concentration 10.0 uM), -6.59%; in assay [6] (Compound Concentration 10.0 uM) it was -6.97%. Also, in assay [7] (Compound Concentration 10.0 uM), the inhibition came to 0.738%.

For the compound `C=CCN1C[C@H](C(=O)N(CCCN(C)C)C(=O)NCC)C[C@@H]2c3cccc4[nH]cc(c34)C[C@H]21`, the inhibition in assay [8] (Compound Concentration 10.0 uM) is -9.96%; in [1] (Compound Concentration 10.0 uM), 10.6%; in [3] (Compound Concentration 10.0 uM), 1.92%; in [4] (Compound Concentration 10.0 uM), 1.81%; in assay [6] (Compound Concentration 10.0 uM), -3.73%; in [7] (Compound Concentration 10.0 uM) it was -7.89%.

Take `CNc1cc(Oc2cc(C(=O)Nc3cc(N4CCN(C)CC4)cc(C(F)(F)F)c3)ccc2C)ncn1`: the inhibition in [8] (Compound Concentration 10.0 uM) is -8.61%; in assay [2] (Compound Concentration 10.0 uM), -3.12%; in [3] (Compound Concentration 10.0 uM), 11.9%; in [4] (Compound Concentration 10.0 uM) it was -9.46%; in [7] (Compound Concentration 10.0 uM), 76.5%.

Consider `CC(=O)NCCc1c(Cc2ccccc2)[nH]c2ccccc12`, for which the inhibition in [1] (Compound Concentration 10.0 uM) was 4.1%; in [3] (Compound Concentration 10.0 uM) it was 2.66%; in [4] (Compound Concentration 10.0 uM), 0.533%; in [5] (Compound Concentration 10.0 uM), -9.93%; in assay [6] (Compound Concentration 10.0 uM), 3.51%; in assay [7] (Compound Concentration 10.0 uM), 16.3%.

For `OC[C@H]1O[C@@H](n2cnc3c(NC4CCCC4)ncnc32)[C@H](O)[C@@H]1O`, the inhibition is -9.38% in assay [8] (Compound Concentration 10.0 uM); 2.61% in [1] (Compound Concentration 10.0 uM); 7.05% in [3] (Compound Concentration 10.0 uM); 9.75% in [4] (Compound Concentration 10.0 uM); 11.2% in [6] (Compound Concentration 10.0 uM); -6.42% in assay [7] (Compound Concentration 10.0 uM).

For `CCC(=O)NC[C@@H]1C[C@H]1c1cccc2c1CCO2`, the inhibition in assay [1] (Compound Concentration 10.0 uM) is 4.24%; in assay [3] (Compound Concentration 10.0 uM), -4.67%; in [4] (Compound Concentration 10.0 uM) it was 2.71%; in assay [5] (Compound Concentration 10.0 uM), 1.29%; in assay [6] (Compound Concentration 10.0 uM) it was -7.72%; in [7] (Compound Concentration 10.0 uM), 4.27%.

With `CN(C)C/C=C/C(=O)Nc1cc2c(Nc3ccc(F)c(Cl)c3)ncnc2cc1O[C@H]1CCOC1`, the inhibition in [8] (Compound Concentration 1.0 uM) is -1.31%; in assay [2] (Compound Concentration 1.0 uM), -1.9%; in [3] (Compound Concentration 1.0 uM) it was 4.97%; in assay [4] (Compound Concentration 1.0 uM) it was 19.4%; in assay [7] (Compound Concentration 1.0 uM), 46.9%.

In the case of `Cc1nc(C#Cc2cccnc2)cs1`, the inhibition in assay [8] (Compound Concentration 10.0 uM) is -8.43%; in assay [1] (Compound Concentration 10.0 uM), 1.49%; in assay [2] (Compound Concentration 10.0 uM), -6.91%; in [9] (Compound Concentration 10.0 uM) it was -0.814%; in assay [4] (Compound Concentration 10.0 uM) it was 5.76%; in assay [5] (Compound Concentration 10.0 uM) it was -7.91%. Moreover, the results for the inhibition in [6] (Compound Concentration 10.0 uM) and in assay [7] (Compound Concentration 10.0 uM) were -1.88% and 4.62%, respectively.

With `O=C(Nc1nc2cccc(-c3ccc(CN4CCS(=O)(=O)CC4)cc3)n2n1)C1CC1`, the inhibition in assay [8] (Compound Concentration 10.0 uM) was 27.3%; in [1] (Compound Concentration 10.0 uM) it was -4.22%; in [2] (Compound Concentration 10.0 uM) it was 2.98%; in [9] (Compound Concentration 10.0 uM) it was -0.894%; in assay [4] (Compound Concentration 10.0 uM), 3.59%; in [5] (Compound Concentration 10.0 uM), 1.15%. Moreover, the inhibition in assay [6] (Compound Concentration 10.0 uM) is -1.92%; in assay [7] (Compound Concentration 10.0 uM) it was 66.4%.

For the compound `COc1ccc(Oc2cc(NCCC(F)(F)F)c3ncc(-c4ccc(C(=O)NC5CC5)c(C)c4)n3n2)c(F)c1F`, the inhibition was 5.15% in assay [8] (Compound Concentration 10.0 uM); 0.303% in assay [2] (Compound Concentration 10.0 uM); -2% in [3] (Compound Concentration 10.0 uM); -2.54% in [4] (Compound Concentration 10.0 uM); 93.1% in assay [7] (Compound Concentration 10.0 uM).

As to `Nc1cnc(N2CCc3cc(S(=O)(=O)Nc4c(F)cc(Cl)cc4F)cc(N4CCCC4=O)c32)nc1`, the inhibition is 6.61% in [8] (Compound Concentration 1.0 uM); -8.47% in [1] (Compound Concentration 1.0 uM); -1.59% in assay [2] (Compound Concentration 1.0 uM); 55.9% in assay [9] (Compound Concentration 1.0 uM); -0.378% in assay [4] (Compound Concentration 1.0 uM); 0.18% in [5] (Compound Concentration 1.0 uM). For the same compound, the inhibition in assay [6] (Compound Concentration 1.0 uM) was -0.999%; in [7] (Compound Concentration 1.0 uM) it was 41.3%.

As for `O=C(c1cc2c(cc1F)OC(c1ccc(F)cc1)(c1ccc(Cl)cc1Cl)O2)N1CCOCC1` (stereo not drawn), the inhibition was 5.83% in assay [8] (Compound Concentration 10.0 uM); 3.95% in [1] (Compound Concentration 10.0 uM); -5.46% in assay [2] (Compound Concentration 10.0 uM); -9.38% in assay [9] (Compound Concentration 10.0 uM); 25.5% in [4] (Compound Concentration 10.0 uM); -5.3% in assay [5] (Compound Concentration 10.0 uM). The figures for the inhibition in [6] (Compound Concentration 10.0 uM) and in [7] (Compound Concentration 10.0 uM) were 8.5% and 17.8%, respectively.

One may read the inhibition as the relative decrease from the control value, in per cent.
